Test results taken from US20230263903A1, “PYRAZOLOAZEPINE IMMUNOCONJUGATES, AND USES THEREOF” (BOLT BIOTHERAPEUTICS, INC., priority 2020, published 2023).

Experiments:
human TLR7 = target: T1, human TLR7 (Homo sapiens, UniProt Q9NYK1); test: HEK Reporter Assay, HEK293 cells expressing human TLR7; type: cell-based; details: for EC50: HEK293 NFKB reporter cells expressing human TLR7, read-out: HEK293 hTLR7 EC50; for TLR7 activity relative to known TLR7 adjuvant C-1: HEK human TLR7 activity at 24 hours, FIG. 1
T1 construct: host or cells: HEK293 NF-kB reporter cells
T1 sequence (Q9NYK1 27-1049): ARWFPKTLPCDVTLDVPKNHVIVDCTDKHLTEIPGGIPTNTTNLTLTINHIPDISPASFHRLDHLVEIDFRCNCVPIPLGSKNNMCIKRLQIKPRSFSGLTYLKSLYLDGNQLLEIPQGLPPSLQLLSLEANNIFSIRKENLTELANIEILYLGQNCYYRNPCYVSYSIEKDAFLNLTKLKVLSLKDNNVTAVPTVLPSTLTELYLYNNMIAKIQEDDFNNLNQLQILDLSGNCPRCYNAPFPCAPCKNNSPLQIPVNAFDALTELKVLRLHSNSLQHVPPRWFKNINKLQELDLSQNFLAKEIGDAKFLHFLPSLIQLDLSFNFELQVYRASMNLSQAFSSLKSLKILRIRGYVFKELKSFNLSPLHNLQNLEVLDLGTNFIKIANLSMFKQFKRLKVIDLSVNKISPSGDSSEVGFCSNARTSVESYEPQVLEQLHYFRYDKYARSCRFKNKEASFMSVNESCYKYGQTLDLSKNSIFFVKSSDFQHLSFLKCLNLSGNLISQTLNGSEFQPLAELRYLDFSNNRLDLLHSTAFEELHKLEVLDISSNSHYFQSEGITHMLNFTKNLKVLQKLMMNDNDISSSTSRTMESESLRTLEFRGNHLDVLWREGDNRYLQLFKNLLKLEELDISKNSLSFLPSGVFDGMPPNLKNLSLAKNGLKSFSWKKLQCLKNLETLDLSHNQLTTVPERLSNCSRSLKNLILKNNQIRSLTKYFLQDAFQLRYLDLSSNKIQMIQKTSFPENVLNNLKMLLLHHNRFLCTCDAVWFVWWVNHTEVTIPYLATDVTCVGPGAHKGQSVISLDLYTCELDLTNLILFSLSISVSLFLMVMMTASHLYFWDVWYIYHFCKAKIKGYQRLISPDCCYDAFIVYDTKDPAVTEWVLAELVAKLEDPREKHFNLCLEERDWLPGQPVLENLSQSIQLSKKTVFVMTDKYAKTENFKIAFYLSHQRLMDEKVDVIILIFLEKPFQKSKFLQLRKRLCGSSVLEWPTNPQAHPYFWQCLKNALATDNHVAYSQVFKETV
Description: (§1) Activity against HEK293 NFKB reporter cells expressing human TLR7 or human TLR8 was measured according to Example 202.
(§2) Example 202 HEK Reporter Assay
(§3) HEK293 reporter cells expressing human TLR7 or human TLR8 were purchased from Invivogen and vendor protocols were followed for cellular propagation and experimentation. Briefly, cells were grown to 80-85% confluence at 5% CO2 in DMEM supplemented with 10% FBS, Zeocin, and Blasticidin. Cells were then seeded in 96-well flat plates at 4×10^4 cells/well with substrate containing HEK detection medium and immunostimulatory molecules.

human TLR8 = target: T2, human TLR8 (Homo sapiens, UniProt Q9NR97); test: HEK Reporter Assay, HEK293 cells expressing human TLR8; type: cell-based; details: for EC50: HEK293 NFKB reporter cells expressing human TLR8, read-out: HEK293 hTLR8 EC50
T2 construct: host or cells: HEK293 NF-kB reporter cells
T2 sequence (Q9NR97 27-1041): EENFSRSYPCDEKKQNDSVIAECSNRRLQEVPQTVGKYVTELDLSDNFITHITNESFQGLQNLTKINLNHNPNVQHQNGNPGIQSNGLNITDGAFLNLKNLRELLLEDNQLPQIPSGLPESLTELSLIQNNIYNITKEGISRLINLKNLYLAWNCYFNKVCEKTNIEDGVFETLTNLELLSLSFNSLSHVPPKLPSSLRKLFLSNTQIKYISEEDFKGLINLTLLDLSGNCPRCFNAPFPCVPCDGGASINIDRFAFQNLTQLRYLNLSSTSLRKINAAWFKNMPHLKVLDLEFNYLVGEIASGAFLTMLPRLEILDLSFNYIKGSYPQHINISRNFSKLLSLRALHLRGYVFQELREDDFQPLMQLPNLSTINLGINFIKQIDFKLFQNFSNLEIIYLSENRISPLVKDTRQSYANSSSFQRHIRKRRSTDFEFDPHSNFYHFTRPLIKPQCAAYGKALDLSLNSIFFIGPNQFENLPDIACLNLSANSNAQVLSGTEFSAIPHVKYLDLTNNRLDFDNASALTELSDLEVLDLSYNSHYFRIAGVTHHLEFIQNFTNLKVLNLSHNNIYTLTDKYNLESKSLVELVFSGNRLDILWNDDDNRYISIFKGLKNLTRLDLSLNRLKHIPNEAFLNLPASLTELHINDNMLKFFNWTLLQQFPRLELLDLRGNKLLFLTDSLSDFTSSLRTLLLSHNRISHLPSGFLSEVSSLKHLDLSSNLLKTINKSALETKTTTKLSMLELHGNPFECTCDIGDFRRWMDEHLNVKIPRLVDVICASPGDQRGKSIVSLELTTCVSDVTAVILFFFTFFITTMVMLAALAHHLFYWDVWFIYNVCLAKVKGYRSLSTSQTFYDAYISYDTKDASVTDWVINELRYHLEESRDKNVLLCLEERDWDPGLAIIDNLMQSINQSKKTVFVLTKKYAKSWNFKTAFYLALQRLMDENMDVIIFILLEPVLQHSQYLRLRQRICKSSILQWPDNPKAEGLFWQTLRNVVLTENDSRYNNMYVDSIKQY
Description: as §1, §2, §3

[1] = Hydrophilicity comparison with comparator C-2; type: physicochemical

Structure (SMILES)	EC50 (human TLR7) [µM]	EC50 (human TLR8) [µM]	TLR7 activity relative to known TLR7 adjuvant C-1 (human TLR7)	hydrophilicity relative to C-2 [1]	TLR8 potency relative to known TLR8 adjuvant C-2 (human TLR8; HEK human TLR8 activity at 24 hours, FIG. 2)
CCCN(CCCNC(=O)CC(C)(C)C)C(=O)C1=Cc2nn(CCCCCN)cc2N=C(N)C1 [PAZ-9, 5-amino-2-(5-aminopentyl)-N-[3-(3,3-dimethylbutanoylamino)propyl]-N-propyl-6H-pyrazolo[4,3-b]azepine-7-carboxamide]	> 9	> 9	–	–	–
CCCN(OCC)C(=O)C1=Cc2c(cnn2CCCCCN)N=C(N)C1 [PAZ-12, 5-amino-1-(5-aminopentyl)-N-ethoxy-N-propyl-6H-pyrazolo[4,3-b]azepine-7-carboxamide]	3.21	0.29	–	–	–
CCCN(CCC)C(=O)C1=Cc2c(cnn2CCCCCN)N=C(N)C1 [PAZ-2, 5-amino-1-(5-aminopentyl)-N,N-dipropyl-6H-pyrazolo[4,3-b]azepine-7-carboxamide]	> 9	2.96	comparable TLR7 activity	–	–
CCCN(CCC)C(=O)C1=Cc2nn(C)cc2N=C(N)C1 [PAZ-6, 5-amino-2-methyl-N,N-dipropyl-6H-pyrazolo[4,3-b]azepine-7-carboxamide]	> 9	4.05	–	–	–
CCCN(CCC)C(=O)C1=Cc2nn(CCCCCNC(=O)OC(C)(C)C)cc2N=C(N)C1 [PAZ-5]	> 9	> 9	–	–	–
CCCN(CCC)C(=O)C1=Cc2c(cnn2C)N=C(N)C1 [PAZ-1, 5-amino-1-methyl-N,N-dipropyl-1,6-dihydropyrazolo[4,3-b]azepine-7-carboxamide]	> 9	4.15	–	–	–
CCCN(CCCNC(=O)CC(C)(C)C)C(=O)C1=Cc2nn(CCCCCNC(=O)OC(C)(C)C)cc2N=C(N)C1 [PAZ-10, tert-butyl N-[5-[5-amino-7-[3-(3,3-dimethylbutanoylamino)propyl-propyl-carbamoyl]-6H-pyrazolo[4,3-b]azepin-2-yl]pentyl]carbamate]	> 9	3.23	–	–	–
CCCN(CCCNC(=O)OC1CCC1)C(=O)C1=Cc2c(cnn2CCCCCN)N=C(N)C1 [PAZ-15, cyclobutyl (3-(5-amino-1-(5-aminopentyl)-N-propyl-1,6-dihydropyrazolo[4,3-b]azepine-7-carboxamido)propyl)carbamate]	> 9	> 9	–	–	–
CCCN(CCC)C(=O)C1=Cc2ccc(-c3cccc(S(=O)(=O)N4CC(CO)C4)c3)cc2N=C(N)C1 [C-2, reference compound]	> 9	1.59	–	–	–
CCCN(CCCNC(=O)CC(C)(C)C)C(=O)C1=Cc2c(cnn2CCCCCNC(=O)OC(C)(C)C)N=C(N)C1 [PAZ-8, tert-butyl N-[5-[5-amino-7-[3-(3,3-dimethylbutanoylamino)propyl-propyl-carbamoyl]-6H-pyrazolo[4,3-b]azepin-1-yl]pentyl]carbamate]	2.75	> 9	–	–	–
CCCN(CCC)C(=O)C1=Cc2c(cnn2Cc2ccc(CN)cc2)N=C(N)C1 [PAZ-14, 5-amino-1-[[4-(aminomethyl)phenyl]methyl]-N,N-dipropyl-6H-pyrazolo[4,3-b]azepine-7-carboxamide]	5.59	> 9	–	–	–
CCCN(CCC)C(=O)C1=Cc2c(cnn2Cc2ccc(CNC(=O)OC(C)(C)C)cc2)N=C(N)C1 [PAZ-13, tert-butyl N-[[4-[[5-amino-7-(dipropylcarbamoyl)-6H-pyrazolo[4,3-b]azepin-1-yl]methyl]phenyl]methyl]carbamate]	0.881	3.84	–	–	–
CCCN(CCCNC(=O)CC(C)(C)C)C(=O)C1=Cc2c(cnn2CCCCCN)N=C(N)C1 [PAZ-7, 5-amino-1-(5-aminopentyl)-N-[3-(3,3-dimethylbutanoylamino)propyl]-N-propyl-6H-pyrazolo[4,3-b]azepine-7-carboxamide]	> 9	> 9	–	–	–
CCCN(OCC)C(=O)C1=Cc2c(cnn2CCCCCNC(=O)OC(C)(C)C)N=C(N)C1 [PAZ-11, tert-butyl N-[5-[5-amino-7-[ethoxy(propyl)carbamoyl]-6H-pyrazolo[4,3-b]azepin-1-yl]pentyl]carbamate]	0.795	1.49	comparable TLR7 activity	improved hydrophilicity	better TLR8 potency
CCCN(CCC)C(=O)C1=Cc2nn(CCCCCN)cc2N=C(N)C1 [PAZ-3]	> 9	> 9	–	–	–
CCCN(CCC)C(=O)C1=Cc2c(cnn2CCCCCNC(=O)OC(C)(C)C)N=C(N)C1 [PAZ-4, tert-butyl N-[5-[5-amino-7-(dipropylcarbamoyl)-6H-pyrazolo[4,3-b]azepin-1-yl]pentyl]carbamate]	2.92	3.1	–	–	–
